Test system: S. aureus (CCUG 1800)
Assay: Minimal microbicidal concentration (MMC99) assay, S. aureus
Type: cell-based
Settings: screen 1; 1% BHI medium; 2 hours; 99% reduction of viable bacteria
Method: Antimicrobial Activity was Measured as Bactericidal Effect on S. aureus Using Minimal Microbicidal Concentration, MMC99, Assay)
S. aureus (#1800; CCUG, Gothenburg, Sweden) cultured on blood-agar plates [Columbia agar (Oxoid, Basingstoke, UK) supplemented with 5% defibrinated horse blood (National Veterinary Institute (SVA), Uppsala, Sweden)] were transferred to brain heart infusion broth (3.7% BHI; Difco, BD Diagnostics, Franklin Lakes, N.J., USA) and incubated in a shaker at 250 rpm+37° C. over night. The culture was thereafter be diluted 1:10 in fresh BHI broth and incubated for additional two hours to reach log-phase growth. The bacteria were pelleted and suspended in 1% BHI medium (BHI broth diluted 100 times in ultra-pure water) to a concentration of 10^7 bacteria/ml as estimated by measuring optical density at 600 nm. Peptides were serially diluted by two-fold steps from 160 μM to 1.25 μM in 1% BHI medium. The peptides (100 μl) were thereafter incubated with bacteria (5 μl á 10^7 bact./ml) for 2 hours at +37° C. Drops (5 μl) of the suspension were placed on blood agar plates. The blood agar plates were incubated over night at +37° C. The MMC99 values, i.e. the lowest peptide concentration needed to achieve a 99% reduction of viable bacteria, were recorded (Table 3). The concentration of the bacterial suspension used in the assay was confirmed by viable counts on blood agar plates.
S. aureus (#1800; CCUG, Gothenburg, Sweden) cultured on blood-agar plates [Columbia agar (Oxoid, Basingstoke, UK) supplemented with 5% defibrinated horse blood (National Veterinary Institute (SVA), Uppsala, Sweden)] were transferred to brain heart infusion broth (3.7% BHI; Difco, BD Diagnostics, Franklin Lakes, N.J., USA) and incubated in a shaker at 250 rpm+37° C. over night. The culture was thereafter be diluted 1:10 in fresh BHI broth and incubated for additional two hours to reach log-phase growth. The bacteria were pelleted and suspended in 1% BHI medium (BHI broth diluted 100 times in ultra-pure water) to a final concentration of 10^7 bacteria/ml as estimated by measuring optical density at 600 nm.
Peptides were serially diluted by two-fold steps from 400 μM to 0.78 μM in either 1% BHI medium or in 50% heat inactivated simulated wound fluid [SWF, containing 1 part 0.1% peptone (Oxoid, Basingstoke, UK) in saline and 1 part fetal bovine serum, diluted 2 times in ultra-pure water].
The peptides (100 μl) were thereafter incubated with bacteria (5 μl a 10^7 bact./ml) for 2 hours at +37° C. Drops (5 μl) of the suspension were placed on blood agar plates. The blood agar plates were incubated over night at +37° C. The MMC99 values, i.e. the lowest peptide concentration needed to achieve a 99% reduction of viable bacteria were recorded (Table 6). The concentration of the bacterial suspension used in the assay was confirmed by viable counts on blood agar plates.
The antimicrobial effects of the peptides 232 (SEQ ID NO: 78), and 220 (SEQ ID NO:67) were analysed by MMC99 (minimal microbicidal concentration) assay against S. aureus (CCUG 1800), MRSA (CCUG 41879), P. aeruginosa (ATCC 15442), E. coli (CCUG 31246), S. pyogenes (CCUG 4207), P. acnes (CCUG 1794T), S. epidermidis (ATCC12228), K. pneumoniae (ATCC 13883), A. baumannii (ATCC 19606), and C. albicans (ATCC 64549). The peptides were purchased from Biopeptide Company (San Diego, Calif., USA) and Bachem AG (Bubendorf, Switzerland) and results are presented in Table 8A and 8B respectively.
Peptides were serially diluted in two different assay medium, 1% BHI medium (brain-heart infusion medium) or 50% heat inactivated simulated wound fluid (SWF), and thereafter incubated with the microorganisms for 2 hours. Drops of the suspension were placed on blood agar plates. The MMC99 values, i.e. the lowest peptide concentration needed to achieve a 99% reduction of viable microorganisms, were recorded. As presented in Table 8, all the peptides have the ability to kill microorganisms frequently appearing in infections. […]

Sequence	MMC99 μM in 1% BHI medium
CFQWQRNMRKVR [Peptide 149]	13.3 µM
NQPTATKCFQWQRNMRKVR [Peptide 102]	>160 µM
QTEADKCFQWQRNMRKVR [Peptide 105]	>160 µM
QPEATKCFPWQRNMRKVR [Peptide 118]	>160 µM
SQPEATKCFQWQRNMRKVR [Peptide 101]	>160 µM
FQWKRAMRKVR [Peptide 122]	20 µM
NEADKCFQWQRNMRKVR [Peptide 109]	160 µM
QTEADKCFQWQRNMRKVR [Peptide 106] (QNEADKCFQWQRNMRKVR)	160 µM
FQWKPAIRKVR [Peptide 140]	>160 µM
WFQWKRRMRKVR [Peptide 129]	10 µM
QSEAEKCFQWQRNMRKVR [Peptide 107]	>160 µM
PEATKCFQWQRNMRKVR [Peptide 108]	>160 µM
WFQWQRNMRKVR [Peptide 128]	20 µM
CFKWKRKMRKVR [Peptide 147]	10 µM
QSEATKLFQWQRNMRKVR [Peptide 112]	>160 µM
QSEATKRFQWLRNLRKVL [Peptide 119]	20 µM

Same assay, conditions: screen 2; 1% BHI medium; 2 hours

Sequence	MMC99 μM in 1% BHI medium
KRQSLARTFKQWARNLRKVL [Peptide 215]	6.25 µM
NSLFEKLAQWLRQLRKVR [Peptide 222]	12.5 µM
QSERKKRFQWLRNLRKVL [Peptide 206]	12.5 µM
KKLWRRWWRKVL [Peptide 244]	12.5 µM
RWCKLWRRLMRKVRRL [Peptide 239]	12.5 µM
RLWRRLMRKVR [Peptide 238]	12.5 µM
QKRATKRFQWLRNLRKVL [Peptide 205]	12.5 µM
QSLAHSLFQWLRNLRKVR [Peptide 218]	6.25 µM
RSLAQKLFQWLRNLRKVR [Peptide 219]	6.25 µM
QSEATKRFQWLRNLRKVLKR [Peptide 211]	6.25 µM

Same assay, conditions: screen 2; 50% heat inactivated simulated wound fluid; 2 hours

Sequence	MMC99 μM in 50% SWF
KRQSLARTFKQWARNLRKVL [Peptide 215]	25 µM
NSLFEKLAQWLRQLRKVR [Peptide 222]	100 µM
QSERKKRFQWLRNLRKVL [Peptide 206]	100 µM
KKLWRRWWRKVL [Peptide 244]	50 µM
RWCKLWRRLMRKVRRL [Peptide 239]	25 µM
RLWRRLMRKVR [Peptide 238]	100 µM
QKRATKRFQWLRNLRKVL [Peptide 205]	50 µM
QSLAHSLFQWLRNLRKVR [Peptide 218]	50 µM
RSLAQKLFQWLRNLRKVR [Peptide 219]	12.5 µM
QSEATKRFQWLRNLRKVLKR [Peptide 211]	100 µM

Test system: TNF-α production in LPS stimulated THP-1 cells
Assay: Inhibition of TNF-α production in LPS stimulated THP-1 cells (ELISA)
Type: cell-based, human
Settings: screen 1; 40 μM peptide; mean relative secretion, LPS-stimulated level without peptide = 100%, basal = 0%
Method: (§1) After 6 hours of incubation at +37° C., 5% CO2 and in a humid atmosphere, the cell supernatants were collected, centrifuged and kept frozen in −20° C. until analyzed for TNF-α content by ELISA (R&D Systems, Minneapolis, Minn., USA). The results are presented as mean relative secretion (%), with stimulated TNF-α level without peptide added set to 100% and basal secretion set to 0% (Table 2).
as §1, with “incubation,” for “incubation at +37° C., 5% CO2 and in a humid atmosphere,”, “centrifuged,” for “centrifuged”, “5).” for “2).”

Sequence	TNF-α at 40 μM peptide
CFQWQRNMRKVR [Peptide 149]	109%
NQPTATKCFQWQRNMRKVR [Peptide 102]	108%
QTEADKCFQWQRNMRKVR [Peptide 105]	87%
QPEATKCFPWQRNMRKVR [Peptide 118]	113%
SQPEATKCFQWQRNMRKVR [Peptide 101]	116%
NEADKCFQWQRNMRKVR [Peptide 109]	47%
QTEADKCFQWQRNMRKVR [Peptide 106] (QNEADKCFQWQRNMRKVR)	96%
FQWKPAIRKVR [Peptide 140]	117%
WFQWKRRMRKVR [Peptide 129]	91%
QSEAEKCFQWQRNMRKVR [Peptide 107]	108%
PEATKCFQWQRNMRKVR [Peptide 108]	127%
WFQWQRNMRKVR [Peptide 128]	104%
CFKWKRKMRKVR [Peptide 147]	111%
QSEATKLFQWQRNMRKVR [Peptide 112]	101%
QSEATKRFQWLRNLRKVL [Peptide 119]	10%

Same assay, conditions: screen 2; 4 μM peptide; mean relative secretion, stimulated = 100%, basal = 0%

Sequence	TNF-α at 4 μM peptide
KRQSLARTFKQWARNLRKVL [Peptide 215]	86.6%
NSLFEKLAQWLRQLRKVR [Peptide 222]	89.2%
QSERKKRFQWLRNLRKVL [Peptide 206]	96.9%
KKLWRRWWRKVL [Peptide 244]	107.7%
RWCKLWRRLMRKVRRL [Peptide 239]	65.6%
RLWRRLMRKVR [Peptide 238]	83.9%
QKRATKRFQWLRNLRKVL [Peptide 205]	91.5%
QSLAHSLFQWLRNLRKVR [Peptide 218]	81.8%
RSLAQKLFQWLRNLRKVR [Peptide 219]	68.5%
QSEATKRFQWLRNLRKVLKR [Peptide 211]	100.7%

Same assay, conditions: screen 2; 10 μM peptide; mean relative secretion, stimulated = 100%, basal = 0%

Sequence	TNF-α at 10 μM peptide
KRQSLARTFKQWARNLRKVL [Peptide 215]	69.6%
NSLFEKLAQWLRQLRKVR [Peptide 222]	65.9%
QSERKKRFQWLRNLRKVL [Peptide 206]	92.9%
KKLWRRWWRKVL [Peptide 244]	116.7%
RWCKLWRRLMRKVRRL [Peptide 239]	56.5%
RLWRRLMRKVR [Peptide 238]	89.2%
QKRATKRFQWLRNLRKVL [Peptide 205]	89.5%
QSLAHSLFQWLRNLRKVR [Peptide 218]	55.7%
RSLAQKLFQWLRNLRKVR [Peptide 219]	44.0%
QSEATKRFQWLRNLRKVLKR [Peptide 211]	89.8%

Same assay, conditions: screen 2; 40 μM peptide; mean relative secretion, LPS-stimulated level without peptide = 100%, basal = 0%

Sequence	TNF-α at 40 μM peptide
KRQSLARTFKQWARNLRKVL [Peptide 215]	1.3%
NSLFEKLAQWLRQLRKVR [Peptide 222]	32.9%
QSERKKRFQWLRNLRKVL [Peptide 206]	51.0%
KKLWRRWWRKVL [Peptide 244]	10.7%
RLWRRLMRKVR [Peptide 238]	76.5%
QKRATKRFQWLRNLRKVL [Peptide 205]	28.3%
QSLAHSLFQWLRNLRKVR [Peptide 218]	9.2%
RSLAQKLFQWLRNLRKVR [Peptide 219]	7.3%
QSEATKRFQWLRNLRKVLKR [Peptide 211]	62.8%
